Experimental data: ChEMBL document CHEMBL6153083, “Synthesis, Structural Modification, and Antismall Cell Lung Cancer Activity of 3-Arylisoquinolines with Dual Inhibitory Activity on Topoisomerase I and II” (J Med Chem, 2025)
Active and inactive are the calls of the source. No cut-off for these calls is given here.

Key:
NCI-H446 [1] = assay: Induction of apoptosis in human NCI-H446 cells assessed as decrease in Bcl-2 level incubated for 48 hrs by Western blot analysis; format: functional, cell-based; settings: dose 1-8 µM
NCI-H446 [2] = assay: Inhibition of clonogenesis in human NCI-H446 cells incubated for 14 to 21 days by crystal violet staining based analysis; format: functional, cell-based; settings: dose 0.375-3 µM, time 14-21 day
[3] = MRT (0 to infinity) in Sprague-Dawley rat at 10 mg/kg, ip measured after 24 hrs by LC-MS/MS analysis; format: ADME, organism-based; settings: in vivo
[4] = Acute toxicity in Kunming mouse assessed as animal death at 400 mg/kg, ip; format: organism-based; settings: in vivo
NCI-H446 [5] = assay: Antiproliferative activity against human NCI-H446 cells incubated for 72 hrs; format: functional, cell-based; settings: NCI-H446, 72 h
NCI-H82 = assay: Antiproliferative activity against human NCI-H82 cells incubated for 72 hrs; format: functional, cell-based; settings: NCI-H82, 72 h
NCI-H1048 [6] = assay: Antiproliferative activity against human NCI-H1048 cells incubated for 72 hrs; format: functional, cell-based; settings: NCI-H1048, 72 h
Homo sapiens = species: Homo sapiens; assay: Inhibition of Topo II (unknown origin) relaxation activity using pBR322 plasmid DNA as substrate at 25 to 100 uM incubated for 30 mins in presence of ATP; settings: dose 25-100 µM
NCI-H446 [7] = assay: Induction of apoptosis in human NCI-H446 cells assessed as formation of membrane blebbing at 1 to 8 uM incubated for 48 hrs by Geimsa staining based analysis; format: functional, cell-based; settings: dose 1-8 µM
NCI-H446 [8] = assay: Inhibition of cell invasion in human NCI-H446 cells incubated for 24 hrs by transwell assay; format: functional, cell-based
[9] = Toxicity in BALB/c nude mouse xenografted with human NCI-H446 cells assessed as deleterious effect in heart at 10 to 20 mg/kg, ip for 21 days by H and E staining based analysis; format: organism-based; settings: in vivo, 504 h, dose 10-20 mg/kg, time 21 day
[10] = Toxicity in BALB/c nude mouse xenografted with human NCI-H446 cells assessed as deleterious effect in liver at 10 to 20 mg/kg, ip for 21 days by H and E staining based analysis; format: organism-based; settings: in vivo, 504 h, dose 10-20 mg/kg, time 21 day
NCI-H1048 [11] = assay: Inhibition of clonogenesis in human NCI-H1048 cells incubated for 14 to 21 days by crystal violet staining based analysis; format: functional, cell-based; settings: dose 0.375-3 µM, time 14-21 day
NCI-H446 [12] = assay: Antitumor activity against human NCI-H446 cells xenografted in BALB/c nude mouse at 10 mg/kg, ip for 21 days relative to control; format: functional; settings: NCI-H446, 504 h, time 21 day, read-out: TGI
NCI-H1048 [13] = assay: Induction of cell cycle arrest in human NCI-H1048 cells assessed as accumulation at S phase incubated for 48 hrs by PI staining based flow cytometry; format: functional
[14] = Half life in Sprague-Dawley rat at 10 mg/kg, ip measured after 24 hrs by LC-MS/MS analysis; format: ADME, organism-based; settings: in vivo
[15] = Toxicity in BALB/c nude mouse xenografted with human NCI-H446 cells assessed as body weight change at 10 to 20 mg/kg, ip for 21 days; format: organism-based; settings: in vivo, 504 h, dose 10-20 mg/kg, time 21 day
NCI-H1048 [16] = assay: Inhibition of cell migration in human NCI-H1048 cells incubated for 24 hrs by transwell assay; format: functional, cell-based; settings: dose 0.375-3 µM
NCI-H1048 [17] = assay: Inhibition of cell invasion in human NCI-H1048 cells incubated for 24 hrs by transwell assay; format: functional, cell-based
[18] = Tmax in Sprague-Dawley rat at 10 mg/kg, ip measured after 24 hrs by LC-MS/MS analysis; format: ADME, organism-based; settings: in vivo
NCI-H446 [19] = assay: Induction of apoptosis in human NCI-H446 cells assessed as increase in cleaved caspase-9 level incubated for 48 hrs by Western blot analysis; format: functional, cell-based; settings: dose 1-8 µM
NCI-H446 [20] = assay: Induction of apoptosis in human NCI-H446 cells assessed as increase in Bax level incubated for 48 hrs by Western blot analysis; format: functional, cell-based; settings: dose 1-8 µM
NCI-H1048 [21] = assay: Induction of apoptosis in human NCI-H1048 cells assessed as decrease in Bcl-2 level incubated for 48 hrs by Western blot analysis; format: functional, cell-based
[22] = Acute toxicity in Kunming mouse assessed as change in body weight at 300 mg/kg, ip measured for 10 days; format: organism-based; settings: in vivo, 240 h, time 10 day
NCI-H446 [23] = assay: Induction of mitochondrial dysfunction in human NCI-H446 cells assessed as increase in ROS level at 1 to 8 uM incubated for 48 hrs by DCFH-DA staining based flow cytometry; format: functional, cell-based; settings: dose 1-8 µM
NCI-H1048 [24] = assay: Induction of apoptosis in human NCI-H1048 cells assessed as increase in cleaved caspase-9 level incubated for 48 hrs by Western blot analysis; format: functional, cell-based
[25] = Cmax in Sprague-Dawley rat at 10 mg/kg, ip measured after 24 hrs by LC-MS/MS analysis; format: ADME, organism-based; settings: in vivo
NCI-H1048 [26] = assay: Induction of apoptosis in human NCI-H1048 cells assessed as increase in cleaved caspase-3 level incubated for 48 hrs by Western blot analysis; format: functional, cell-based
NCI-H446 [27] = assay: Induction of DNA damage in human NCI-H446 cells incubated for 48 hrs by comet assay; format: functional, cell-based; settings: dose 1-8 µM
NCI-H1048 [28] = assay: Inhibition of cell proliferation in human NCI-H1048 cells incubated for 24 hrs by EdU incorporation assay; format: functional, cell-based; settings: dose 0.375-3 µM
NCI-H446 [29] = assay: Induction of apoptosis in human NCI-H446 cells assessed as increase in cleaved caspase-3 level incubated for 48 hrs by Western blot analysis; format: functional, cell-based; settings: dose 1-8 µM
NCI-H1048 [30] = assay: Induction of apoptosis in human NCI-H1048 cells assessed as reduction in cell viability incubated for 48 hrs by Geimsa staining based analysis; format: functional
[31] = Inhibition of PI3K/AKT/mTOR signalling pathway in human NCI-H446 cells assessed as decrease in AKT level at 1 to 8 uM incubated for 48 hrs by Western blot analysis; format: cell-based; settings: dose 1-8 µM
[32] = Toxicity in BALB/c nude mouse xenografted with human NCI-H446 cells assessed as deleterious effect in spleen at 10 to 20 mg/kg, ip for 21 days by H and E staining based analysis; format: organism-based; settings: in vivo, 504 h, dose 10-20 mg/kg, time 21 day
[33] = Inhibition of PI3K/AKT/mTOR signalling pathway in human NCI-H446 cells assessed as decrease in mTOR level at 1 to 8 uM incubated for 48 hrs by Western blot analysis; format: cell-based; settings: dose 1-8 µM
NCI-H146 = assay: Antiproliferative activity against human NCI-H146 cells incubated for 72 hrs; format: functional, cell-based; settings: NCI-H146, 72 h
[34] = MRT (0 to t) in Sprague-Dawley rat at 10 mg/kg, ip measured after 24 hrs by LC-MS/MS analysis; format: ADME, organism-based; settings: in vivo
NCI-H1048 [35] = assay: Induction of apoptosis in human NCI-H1048 cells assessed as increase in Bax level incubated for 48 hrs by Western blot analysis; format: functional, cell-based
NCI-H1048 [36] = assay: Induction of DNA damage in human NCI-H1048 cells incubated for 48 hrs by comet assay; format: functional, cell-based; settings: dose 1-8 µM
[37] = Antiproliferative activity against human NCI-H196 cells incubated for 72 hrs; format: functional, cell-based; settings: NCI-H196, 72 h
[38] = Antiproliferative activity against human L02 cells incubated for 72 hrs; format: toxicity, cell-based
NCI-H446 [39] = assay: Antitumor activity against human NCI-H446 cells xenografted in BALB/c nude mouse assessed as decrease in tumor volume at 10 to 20 mg/kg, ip for 21 days; format: functional, organism-based; settings: dose 10-20 mg/kg, time 21.0 day
[40] = AUC (0 to t) in Sprague-Dawley rat at 10 mg/kg, ip measured after 24 hrs by LC-MS/MS analysis; format: ADME, organism-based; settings: in vivo

For `CC1CC(C)CN(Cc2cc3c(cc2-c2cc4ccc5c(c4cn2)OCO5)OCO3)C1` (stereo unspecified), the Activity (NCI-H446 [1]) was “Dose-dependent-effect”, the inhibition (NCI-H446 [2]) was “Dose-dependent-effect” and the MRT inf [3] was 5.19 h. For the same compound, the Activity [4] was “Toxic”, the IC50 (NCI-H446 [5]) was 1.3 µM and the IC50 (NCI-H82) was 2.25 µM. For the same compound, the IC50 (NCI-H1048 [6]) was 1.42 µM, the inhibition (Homo sapiens) was “Active; Exhibited Stronger Activity Against Topo Ii Compared To Topo I” and the Activity (NCI-H446 [7]) was “Active”. For the same compound, the inhibition (NCI-H446 [8]) was “Dose-dependent-effect; Displayed Stronger Inhibitory Effect Than Etoposide”, the Activity [9] was “Non-toxic” and the Activity [10] was “Non-toxic”. The inhibition (NCI-H1048 [11]) was “Dose-dependent-effect; Potent Inhibitory Effect At Equivalent Efficacy As Etoposide”, the inhibition in vivo at 10 mg/kg (NCI-H446 [12]) was 75.2% and the Activity (NCI-H1048 [13]) was “Dose-dependent-effect”. The half-life [14] was 3.38 h, the Activity [15] was “Non-toxic” and the inhibition (NCI-H1048 [16]) was “Dose-dependent-effect; Displayed Stronger Inhibitory Effect Than Etoposide”. The inhibition (NCI-H1048 [17]) was “Dose-dependent-effect; Displayed Stronger Inhibitory Effect Than Etoposide”, the Tmax [18] was 0.25 h and the Activity (NCI-H446 [19]) was “Dose-dependent-effect”. The Activity (NCI-H446 [20]) was “Dose-dependent-effect”, the Activity (NCI-H1048 [21]) was “Dose-dependent-effect” and the Activity [22] was “Non-toxic”. The Activity (NCI-H446 [23]) was “Active”, the Activity (NCI-H1048 [24]) was “Dose-dependent-effect” and the Cmax [25] was 145 ng/mL. For the same compound, the Activity (NCI-H1048 [26]) was “Dose-dependent-effect”, the Activity (NCI-H446 [27]) was “Dose-dependent-effect” and the inhibition (NCI-H1048 [28]) was “Dose-dependent-effect; Compound Effect Surpassed Etoposide Effect”. For the same compound, the Activity (NCI-H446 [29]) was “Dose-dependent-effect”, the Activity (NCI-H1048 [30]) was “Dose-dependent-effect” and the inhibition [31] was “Active”. For the same compound, the Activity [32] was “Non-toxic”, the inhibition [33] was “Active” and the IC50 (NCI-H146) was 22.8 µM. For the same compound, the MRT last at 24 h [34] was 5.02 h, the Activity (NCI-H1048 [35]) was “Dose-dependent-effect” and the Activity (NCI-H1048 [36]) was “Dose-dependent-effect”. The IC50 [37] was 9.51 µM, the IC50 at 72 h [38] was 29.1 µM and the Activity (NCI-H446 [39]) was “Active; Exhibited Markedly Slow Growth Rate”. The AUC(0-t) at 24 h [40] was 736 ng·h/mL.
In the case of `CCC1CCCC(C)N1Cc1cc2c(cc1-c1cc3ccc4c(c3cn1)OCO4)OCO2` (stereo unspecified), the Activity (NCI-H446 [1]) is reported as “Dose-dependent-effect”, the inhibition (NCI-H446 [2]) is reported as “Dose-dependent-effect” and the MRT inf [3] is reported as 6.14 h. For the same compound, the Activity [4] was “Toxic”, the IC50 (NCI-H446 [5]) was 1.32 µM and the IC50 (NCI-H82) was 2.41 µM. The IC50 (NCI-H1048 [6]) was 2.45 µM, the inhibition (Homo sapiens) was “Active; Exhibited Stronger Activity Against Topo Ii Compared To Topo I” and the Activity (NCI-H446 [7]) was “Active”. The inhibition (NCI-H446 [8]) was “Dose-dependent-effect”, the Activity [9] was “Non-toxic” and the Activity [10] was “Non-toxic”. The inhibition (NCI-H1048 [11]) was “Dose-dependent-effect”, the inhibition in vivo at 10 mg/kg (NCI-H446 [12]) was 69.2% and the Activity (NCI-H1048 [13]) was “Dose-dependent-effect”. The half-life [14] was 4.86 h, the Activity [15] was “Non-toxic” and the inhibition (NCI-H1048 [16]) was “Dose-dependent-effect”. For the same compound, the inhibition (NCI-H1048 [17]) was “Dose-dependent-effect”, the Tmax [18] was 0.25 h and the Activity (NCI-H446 [19]) was “Dose-dependent-effect”. For the same compound, the Activity (NCI-H446 [20]) was “Dose-dependent-effect”, the Activity (NCI-H1048 [21]) was “Dose-dependent-effect” and the Activity [22] was “Non-toxic”. For the same compound, the Activity (NCI-H446 [23]) was “Active”, the Activity (NCI-H1048 [24]) was “Dose-dependent-effect” and the Cmax [25] was 228 ng/mL. The Activity (NCI-H1048 [26]) was “Dose-dependent-effect”, the Activity (NCI-H446 [27]) was “Dose-dependent-effect” and the inhibition (NCI-H1048 [28]) was “Dose-dependent-effect; Compound Effect Surpassed Etoposide Effect”. For the same compound, the Activity (NCI-H446 [29]) was “Dose-dependent-effect”, the Activity (NCI-H1048 [30]) was “Dose-dependent-effect” and the inhibition [31] was “Active”. For the same compound, the Activity [32] was “Non-toxic”, the inhibition [33] was “Active” and the IC50 (NCI-H146) was 6.23 µM. For the same compound, the MRT last at 24 h [34] was 5.42 h, the Activity (NCI-H1048 [35]) was “Dose-dependent-effect” and the Activity (NCI-H1048 [36]) was “Dose-dependent-effect”. The IC50 [37] was 13.9 µM, the IC50 at 72 h [38] was 26.1 µM and the Activity (NCI-H446 [39]) was “Active; Exhibited Markedly Slow Growth Rate”. The AUC(0-t) at 24 h [40] was 1180 ng·h/mL.
